According to patent US11013751B2, “Compositions and methods for treating multiple sclerosis” (Vitalis LLC, priority 2017, dated 2021):

Key:
[1] = Comparative bioavailability study, monomethyl fumarate plasma pharmacokinetics, single dose, fasting; format: in vivo, human; settings: Treatment A over Treatment B normalized to 180 mg DMF
Procedure: This was a single center, pilot, comparative bioavailability, open-label, randomized, single-dose, 2-period, 2-sequence, crossover study under fasting conditions. A total of 12 healthy adult male or female volunteers were included in this pilot study. For each period, subjects will be confined from at least 10 hours before dosing until 12 hours post-dose. There were a washout of 7 days or more between doses. The washout period could be increased for logistical considerations. Participation of each subject in this study lasted approximately 9 days.
The delayed-release capsule were placed on the subject's tongue. Subjects were instructed to suck the delayed-release capsule until the acetylsalicylic acid coating was dissolved or up to a maximum of 1 minute after the delayed-release capsule had been placed on the subject's tongue. The delayed-release capsule should not be chewed, bitten, or swallowed during that 1 minute period or until the coating is dissolved; only the saliva could be swallowed. The subject was instructed to give a hand sign once the acetylsalicylic acid coating was dissolved (the capsule should feel and taste different). Thereafter, or up to a maximum of 1 minute after the delayed-release capsule was placed on the subject's tongue, 240 mL of water was given to subjects to swallow the capsule. Time of dosing was set to the time the capsule was placed on the tongue. […]

[2] = pretreatment with 325 mg aspirin for 4 days before DMF; cited from earlier work

For `CC(=O)Oc1ccccc1C(=O)O` [aspirin, acetylsalicylic acid], the “Cmax Change % (A over B)” value [1] is given as “did not have significant impact”, the “flushing incidence and intensity” value [2] is given as “reduced” and the gastrointestinal events [2] is given as “did not affect”. For the same molecule, the “pharmacokinetic profile of DMF” value [2] was “did not affect”.
